Test results from US20240279298A1 (BEIJING TUO JIE BIOPHARMACEUTICAL CO. LTD., priority 2021, published 2024).
Converted amounts (≈) assume the structure as drawn. Where a SMILES comes first, the peptide text is derived from it. [ ]: non-standard residue; d: D form. Aib = CC(C)(N)C(=O)O

What was measured:
human GLP-1R = target: T1, human GLP-1R (Homo sapiens, UniProt P43220); assay: Agonist activity assay for GLP-1R (cAMP HTRF); assay type: cell-based
T1 construct: expressed in transfected cells
Experimental: (§1) The activation of GCGR by related compounds will stimulate the formation of cyclic adenosine monophosphate (cAMP) in cells. Thus, the receptor activity can be monitored by cAMP production in proper cells expressing the receptor.
(§2) Agonist activity assay for GCGR: Cryopreserved stable CHO-K1/GCGR/CRE-Luc cells were taken from a liquid nitrogen tank, thawed in a 37° C. water bath, resuspended in DMEM/F12 medium (Sigma Cat #D8437), centrifuged, and seeded into T75 culture flasks. The cells were passaged at least once for subsequent tests. Before testing, the cells were trypsinized, centrifuged, washed once, and resuspended in serum-free DMEM/F12 medium. The cell density was adjusted, and the cells were plated in a 96-well plate at a density of 2,500 cells/5 μL/well. A 1×buffer solution in Cisbio-cAMP-Gs Dynamic kit was prepared, and IBMX was added at a final concentration of 0.5 mM. 5 μL of polypeptide serially diluted by buffer was added into each well, and the plate was shaken gently for mixing and incubated for 30 minutes at 37° C. cAMP-d2 and Anti-cAMP-Eu^3+-Cryptate were 20-fold diluted with cAMP Lysis and detection buffer respectively and mixed well. 5 μL of diluted cAMP-d2 solution and 5 μL of diluted Anti-cAMP-Eu^3+-Cryptate solution were sequentially added into each well. The mixture was mixed well by moderate vibration, and incubated for 1 hour at room temperature away from light.
Agonist activity assay for GLP-1R: The method differed from the method described above for the agonist activity assay for GCGR in that a stable CHO-GLP-1R cell line was used.

[1] = test system: insulin-induced hypoglycemia rat model; assay: Efficacy in insulin-induced hypoglycemic rat model; assay type: in vivo, SD rats; settings: for Blood glucose 60 min / Blood glucose 75 min / Blood glucose 90 min / Blood glucose 105 min: insulin 0.65 IU/kg at T0
human GIPR = target: T2, human GIPR (Homo sapiens, UniProt P48546); assay: Agonist activity assay for GIPR (cAMP HTRF); assay type: cell-based
T2 construct: expressed in transfected cells
T2 sequence (P48546 22-466): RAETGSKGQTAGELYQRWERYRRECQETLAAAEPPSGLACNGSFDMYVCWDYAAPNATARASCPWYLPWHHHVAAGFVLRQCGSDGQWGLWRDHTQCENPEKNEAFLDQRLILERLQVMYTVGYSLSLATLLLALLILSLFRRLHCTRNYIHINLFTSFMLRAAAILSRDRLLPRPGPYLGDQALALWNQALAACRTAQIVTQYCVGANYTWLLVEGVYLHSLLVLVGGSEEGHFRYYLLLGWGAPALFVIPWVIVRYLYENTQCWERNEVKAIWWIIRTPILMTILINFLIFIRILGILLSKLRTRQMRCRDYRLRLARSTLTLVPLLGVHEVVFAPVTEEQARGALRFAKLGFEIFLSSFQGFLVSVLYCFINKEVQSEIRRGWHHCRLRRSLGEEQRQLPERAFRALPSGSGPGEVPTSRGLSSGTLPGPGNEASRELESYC
Experimental: as §1, §2
Agonist activity assay for GIPR: The method differed from the method described above for the agonist activity assay for GCGR in that a stable CHO-K1/GIPR cell line was used, and the cell density was 3,000 cells/5 μL/well.

[2] = Maximum solubility in phosphate buffer pH 7.4; assay type: physicochemical; settings: phosphate buffer pH 7.4, room temperature
[3] = target: T3, human glucagon receptor (GCGR) (Homo sapiens, UniProt P47871); assay: Agonist activity assay for GCGR (cAMP HTRF); assay type: cell-based; settings: normalized by the activity of the native glucagon
T3 construct: expressed in transfected cells

[4] = test system: normal rats (blood glucose); assay: Efficacy in normoglycemic rat model; assay type: in vivo, SD rats; settings: for Blood glucose 15 min / Blood glucose 30 min / Blood glucose 45 min / Blood glucose 60 min: normal rats; for Hyperglycemic efficacy (in words): normoglycemic rats, subcutaneous
[5] = human, microsomes, 0.25 h, 1 μM
[6] = 6 nmol/kg subcutaneous at 45 min
[7] = 12 nmol/kg subcutaneous at 45 min
[8] = 20 nmol/kg subcutaneous at 45 min
[9] = 0.5 nmol/kg subcutaneous single dose
[10] = 2 nmol/kg subcutaneous single dose
[11] = 6 nmol/kg subcutaneous single dose

T3 sequence (P47871 26-477): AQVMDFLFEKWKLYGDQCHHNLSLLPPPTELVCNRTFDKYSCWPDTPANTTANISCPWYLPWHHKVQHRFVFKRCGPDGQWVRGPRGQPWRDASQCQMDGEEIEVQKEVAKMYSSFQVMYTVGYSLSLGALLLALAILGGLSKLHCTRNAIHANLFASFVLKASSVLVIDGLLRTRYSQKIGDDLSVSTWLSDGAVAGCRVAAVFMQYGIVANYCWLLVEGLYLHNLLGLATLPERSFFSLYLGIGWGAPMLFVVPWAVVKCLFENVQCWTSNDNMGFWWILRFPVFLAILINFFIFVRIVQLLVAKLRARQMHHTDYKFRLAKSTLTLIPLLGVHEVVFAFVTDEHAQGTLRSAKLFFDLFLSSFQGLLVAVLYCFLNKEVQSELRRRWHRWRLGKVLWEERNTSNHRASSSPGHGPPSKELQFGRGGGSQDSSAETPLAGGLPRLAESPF
T1 sequence (P43220 24-463): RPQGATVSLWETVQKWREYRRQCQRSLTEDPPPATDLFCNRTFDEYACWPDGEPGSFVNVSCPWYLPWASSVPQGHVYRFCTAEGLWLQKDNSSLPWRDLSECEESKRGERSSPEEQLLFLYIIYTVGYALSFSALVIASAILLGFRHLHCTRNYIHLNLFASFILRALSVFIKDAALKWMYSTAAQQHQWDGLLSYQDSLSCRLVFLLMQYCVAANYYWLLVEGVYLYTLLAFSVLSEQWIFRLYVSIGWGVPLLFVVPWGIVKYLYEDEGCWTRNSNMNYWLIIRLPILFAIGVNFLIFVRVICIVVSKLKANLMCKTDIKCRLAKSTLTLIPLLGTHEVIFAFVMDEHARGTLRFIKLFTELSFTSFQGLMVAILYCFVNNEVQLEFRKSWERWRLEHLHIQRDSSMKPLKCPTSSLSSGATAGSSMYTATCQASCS

Which “Percentage residues 0 min” value (human liver microsomes) does the source give for CC(C)C[C@H](NC(=O)[C@H](Cc1ccc(O)cc1)NC(=O)[C@H](CCCCN)NC(=O)[C@H](CO)NC(=O)[C@H](Cc1ccc(O)cc1)NC(=O)[C@H](CC(=O)O)NC(=O)[C@H](CO)NC(=O)[C@@H](NC(=O)[C@H](Cc1ccccc1)NC(=O)[C@@H](NC(=O)CNC(=O)[C@H](CCC(N)=O)NC(=O)[C@H](CO)NC(=O)[C@@H](N)Cc1c[nH]cn1)[C@@H](C)O)[C@@H](C)O)C(=O)N[C@@H](CC(=O)O)C(=O)N[C@@H](CC(C)C)C(=O)NC(C)(C)C(=O)N[C@@H](CCCNC(=N)N)C(=O)N[C@@H](C)C(=O)N[C@@H](CCC(N)=O)C(=O)N[C@@H](CCC(=O)O)C(=O)N[C@@H](Cc1ccccc1)C(=O)N[C@H](C(=O)N[C@@H](CCC(N)=O)C(=O)N[C@@H](Cc1c[nH]c2ccccc12)C(=O)N[C@@H](CC(C)C)C(=O)N[C@@H](CCC(=O)O)C(=O)N[C@@H](CO)C(=O)N[C@H](C(=O)O)[C@@H](C)O)C(C)C [Compound 40] (H-HSQGTFTSDYSKYLDL[Aib]RAQEFVQWLEST-OH) here?
Its value is 100.0%.

And the T½ (human liver microsomes; human, microsomes, 1 μM)?
The T½ was 125.37 min.

What about the “Percentage residues 15 min” value (human liver microsomes; [5]) of the same molecule?
The value was 100.5%.

And the “Percentage residues 30 min” value (human liver microsomes; human, microsomes, 0.5 h, 1 μM)?
The value was 89.85%.

What about the “Percentage residues 60 min” value (human liver microsomes; human, microsomes, 1 h, 1 μM) of the same molecule?
Its value is 66.96%.

And the “Percentage residues 120 min” value (human liver microsomes; human, microsomes, 2 h, 1 μM)?
Its value is 41.48%.

What about the “GLP-1R % Activity relative to native GLP-1” value (human GLP-1R) of the same molecule?
Its value is 0.192%.

And the “Percentage residues 0 min” value (human kidney microsomes)?
Its value is 100.0%.

And the “Percentage residues 60 min” value (human kidney microsomes)?
The value was 25.16%.

And the T½ (human kidney microsomes; human, microsomes, 1 μM)?
Its T½ is 38.19 min.

What about the “Percentage residues 15 min” value (human kidney microsomes; [5]) of the same molecule?
The value was 63.34%.

And the “Percentage residues 30 min” value (human kidney microsomes; human, microsomes, 0.5 h, 1 μM)?
Its value is 45.04%.

What about the “Percentage residues 120 min” value (human kidney microsomes; human, microsomes, 2 h, 1 μM) of the same molecule?
The value was 10.61%.

What about the “Blood glucose 60 min” value [1, 6] of the same molecule?
Its value is 6.65 mmol/L.

What about the “Blood glucose 75 min” value [1, 6] of the same molecule?
The value was 9.05 mmol/L.

What about the “Blood glucose 90 min” value [1, 6] of the same molecule?
The value was 7.08 mmol/L.

And the “Blood glucose 105 min” value [1, 6]?
The value was 6.99 mmol/L.

What about the “Blood glucose 60 min” value [1, 7] of the same molecule?
The value was 7.40 mmol/L.

What about the “Blood glucose 75 min” value [1, 7] of the same molecule?
Its value is 9.50 mmol/L.

What about the “Blood glucose 90 min” value [1, 7] of the same molecule?
The value was 9.13 mmol/L.

What about the “Blood glucose 105 min” value [1, 7] of the same molecule?
The value was 8.63 mmol/L.

What about the “Blood glucose 60 min” value [1, 8] of the same molecule?
The value was 6.87 mmol/L.

What about the “Blood glucose 75 min” value [1, 8] of the same molecule?
Its value is 9.68 mmol/L.

And the “Blood glucose 90 min” value [1, 8]?
Its value is 9.28 mmol/L.

And the “Blood glucose 105 min” value [1, 8]?
The value was 9.00 mmol/L.

What about the “Effect on raising blood glucose level (in words)” value ([1]; same dose (12 nmol/kg)) of the same molecule?
Its value is “significantly better than that of Dasiglucagon and lasts longer”.

And the EC50 (human GIPR; CHO-K1/GIPR cell line, cAMP)?
Its EC50 is over 100 nM.

What about the “GIPR % Activity relative to native GIP” value (human GIPR; relative to native GIP) of the same molecule?
Its value is under 0.0700%.

And the solubility at 5 min [2]?
Its solubility at 5 min is 5190 µg/mL (≈ 1520 µM).

And the Relative activity [3]?
Its Relative activity is 318%.

What about the “Blood glucose 15 min” value [4, 9] of the same molecule?
Its value is 9.45 mmol/L.

And the “Blood glucose 30 min” value [4, 9]?
Its value is 8.55 mmol/L.

And the “Blood glucose 45 min” value [4, 9]?
Its value is 6.93 mmol/L.

What about the “Blood glucose 60 min” value [4, 9] of the same molecule?
The value was 6.10 mmol/L.

And the “Blood glucose 15 min” value [4, 10]?
Its value is 8.60 mmol/L.

And the “Blood glucose 30 min” value [4, 10]?
The value was 9.52 mmol/L.

And the “Blood glucose 45 min” value [4, 10]?
The value was 8.35 mmol/L.

And the “Blood glucose 60 min” value [4, 10]?
The value was 6.40 mmol/L.

What about the “Blood glucose 15 min” value [4, 11] of the same molecule?
Its value is 9.63 mmol/L.

What about the “Blood glucose 30 min” value [4, 11] of the same molecule?
Its value is 10.22 mmol/L.

And the “Blood glucose 45 min” value [4, 11]?
The value was 8.83 mmol/L.

What about the “Blood glucose 60 min” value [4, 11] of the same molecule?
The value was 7.10 mmol/L.

What about the “Hyperglycemic efficacy (in words)” value ([4]; listed as Glucagon analog 40) of the same molecule?
The value was “raised the blood glucose level in rats in a dose-dependent manner”.

And the “Hyperglycemic efficacy (in words)” value ([4]; listed as glucagon analog 40)?
Its value is “significantly better than that of Dasiglucagon”.
